Data: US7541367B2, “3-benzoimidazolyl-pyrazolopyridines useful in treating kinase disorders” (Janssen Pharmaceutica, N.V., priority 2005, dated 2009)

Key:
[1] = target: T1, CDK1 (Homo sapiens, UniProt P06493); experiment: CDK-1 kinase screening assay (33P-ATP FlashPlate); format: biochemical; settings: human CDK1 with cyclin B; 10 μM ATP; 1 hr at 30° C
T1 construct: purchased New England Biolabs, Beverly, Mass; 6020; host or cells: insect cells
Experimental: A kinase reaction mixture was prepared containing 50 mM Tris-HCl pH=8, 10 mM MgCl2, 0.1 mM […], 1 mM DTT, 10 μM ATP, 0.025 μM biotinylated histone-H1 peptide substrate and 0.2 μCuries per well ^33P-γ-ATP (2000-3000 Ci/mmol). 70 μL of the kinase reaction mixture was dispensed into the well of a streptavidin coated FlashPlate™ (Cat. # SMP103, NEN, Boston, Mass.).
Test compound stock in 100% DMSO (1 μL) was added to the wells resulting in a final concentration of 1% DMSO in the reaction with a 100 μL final reaction volume. Each enzyme was diluted in 50 mM Tris-HCl pH=8.0, 0.11% BSA and 30 μL was added to each well to initiate the reaction. The reaction was incubated for one hour at 30° C. At the end of the 1 hr incubation, the reaction was terminated by aspirating the mixture from the plate and washing the wells twice with PBS containing 100 mM EDTA. The biotinylated peptide substrate became immobilized on the Flashplate™ and the incorporation of ^33P-γ-ATP was measured by reading the plate on a scintillation counter. Inhibition of the enzymatic activity was measured by observing a reduced amount of ^33P-γ-ATP incorporated into the immobilized peptide.
The CDK1 enzyme was isolated from insect cells expressing both the human CDK1 catalytic subunit (Accession number NM_001786) and its positive regulatory subunit cyclin B (New England Biolabs, Beverly, Mass.; Cat. # 6020). The assay used 30 ng of the N-terminal biotinylated peptide biotin-[…]-amide (Cyclin dependent kinase 1) per well.
A maximum and minimum signal for the assay was determined on each plate. The percent inhibition of a test compound was calculated according to the formula: […]
For a series of test concentrations, the IC50 was derived by graphing percent inhibition against the log of the concentrations tested for a given compound with results shown in Table 1.
For compounds with multiple values, each value represents a separate assay result.

[2] = target: T2, VEGF-R2 (Rattus norvegicus, UniProt O08775); experiment: VEGF-R2 kinase screening assay (33P-ATP FlashPlate); format: biochemical; settings: rat VEGF-R2 kinase domain; 10 μM ATP; 1 hr at 30° C;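 also: Read-out is ³³P incorporation from ³³P-γ-ATP into biotinylated peptide substrate captured on streptavidin FlashPlate, counted by scintillation, 1% DMSO final, inhibition scaled between per-plate maximum and minimum signals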
T2 construct: polyhistidine (N)
T2 sequence (O08775 786-1343): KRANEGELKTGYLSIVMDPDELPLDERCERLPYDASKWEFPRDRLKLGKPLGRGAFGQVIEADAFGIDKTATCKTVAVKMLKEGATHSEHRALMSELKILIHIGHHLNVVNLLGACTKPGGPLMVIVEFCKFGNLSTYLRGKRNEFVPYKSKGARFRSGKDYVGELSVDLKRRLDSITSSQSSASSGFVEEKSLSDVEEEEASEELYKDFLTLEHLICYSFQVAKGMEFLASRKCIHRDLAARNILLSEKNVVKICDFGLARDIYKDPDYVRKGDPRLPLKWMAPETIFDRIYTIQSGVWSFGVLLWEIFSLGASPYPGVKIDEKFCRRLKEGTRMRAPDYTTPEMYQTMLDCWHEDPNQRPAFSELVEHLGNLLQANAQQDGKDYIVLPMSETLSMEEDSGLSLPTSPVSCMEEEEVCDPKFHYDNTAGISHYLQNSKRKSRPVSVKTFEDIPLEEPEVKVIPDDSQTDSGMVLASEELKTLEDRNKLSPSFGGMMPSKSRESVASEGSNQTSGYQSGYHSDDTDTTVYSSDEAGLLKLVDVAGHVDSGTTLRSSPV

[3] = target: T3, HER2 (Homo sapiens, UniProt P04626); experiment: HER2 kinase screening assay (33P-ATP FlashPlate); format: biochemical; settings: GST-HIS6 HER-2 aa 679 to 1255; 10 μM ATP; 1 hr at 30° C;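 also: Biotin-poly(GT) 4:1 peptide captured on streptavidin FlashPlate, 33P transfer from γ-ATP read by scintillation counting, lower incorporation means inhibition, 1% DMSO final, 100 µL reaction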
T3 construct: GST (Glutathione-S-Transferase) (N); HIS6 (N); thrombin cleavage site (N); purchased Proqinase, Freiburg, Germany
T3 sequence (P04626 679-1255): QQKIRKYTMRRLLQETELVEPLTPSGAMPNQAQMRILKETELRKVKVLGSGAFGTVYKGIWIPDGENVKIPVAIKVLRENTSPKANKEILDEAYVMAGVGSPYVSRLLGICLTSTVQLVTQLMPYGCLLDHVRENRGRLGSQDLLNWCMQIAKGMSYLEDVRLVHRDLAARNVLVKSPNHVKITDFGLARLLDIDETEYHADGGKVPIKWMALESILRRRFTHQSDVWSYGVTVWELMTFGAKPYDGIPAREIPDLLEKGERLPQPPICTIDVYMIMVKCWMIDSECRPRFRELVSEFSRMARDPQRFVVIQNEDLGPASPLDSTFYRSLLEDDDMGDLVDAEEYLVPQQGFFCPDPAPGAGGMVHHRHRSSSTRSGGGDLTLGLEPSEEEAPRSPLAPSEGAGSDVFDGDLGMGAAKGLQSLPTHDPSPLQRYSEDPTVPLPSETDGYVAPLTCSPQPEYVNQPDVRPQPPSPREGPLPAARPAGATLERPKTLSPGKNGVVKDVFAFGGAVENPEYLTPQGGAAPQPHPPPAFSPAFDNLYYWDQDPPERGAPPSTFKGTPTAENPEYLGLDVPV

[4] = target: T4, Aurora-A (Mus musculus, UniProt P97477); experiment: Aurora-A kinase screening assay (33P-ATP FlashPlate); format: biochemical; settings: 10 μM ATP, 1 hr at 30° C;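 also: His-tagged mouse Aurora-A phosphorylating a biotinylated peptide captured on streptavidin plates, read as 33P uptake by scintillation counting, 1% DMSO, inhibition scaled between per-plate maximum and minimum signals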
T4 construct: polyhistidine (N)
T4 sequence (P97477 1-395): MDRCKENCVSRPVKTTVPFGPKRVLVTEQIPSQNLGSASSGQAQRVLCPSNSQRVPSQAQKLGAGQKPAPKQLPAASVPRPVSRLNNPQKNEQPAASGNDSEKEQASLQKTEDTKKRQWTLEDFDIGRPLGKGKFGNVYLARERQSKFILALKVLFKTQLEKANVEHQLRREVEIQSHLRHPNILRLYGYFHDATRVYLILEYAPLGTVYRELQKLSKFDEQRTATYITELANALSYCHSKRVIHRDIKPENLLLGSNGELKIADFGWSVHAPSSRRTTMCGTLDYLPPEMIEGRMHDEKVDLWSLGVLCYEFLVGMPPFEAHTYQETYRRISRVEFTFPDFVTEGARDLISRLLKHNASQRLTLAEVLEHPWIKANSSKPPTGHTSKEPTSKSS

[5] = target: T5, RET (Homo sapiens, UniProt P07949); experiment: RET kinase screening assay (33P-ATP FlashPlate); format: biochemical; settings: human RET kinase domain; 10 μM ATP; 1 hr at 30° C;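 also: biotinylated peptide substrate captured on streptavidin FlashPlate, 33P phosphate transfer read by scintillation counting, 1% DMSO, lower incorporation means inhibition, percent relative to per-plate maximum and minimum signals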
T5 construct: polyhistidine (N)
T5 sequence (P07949 658-1114 limits assumed): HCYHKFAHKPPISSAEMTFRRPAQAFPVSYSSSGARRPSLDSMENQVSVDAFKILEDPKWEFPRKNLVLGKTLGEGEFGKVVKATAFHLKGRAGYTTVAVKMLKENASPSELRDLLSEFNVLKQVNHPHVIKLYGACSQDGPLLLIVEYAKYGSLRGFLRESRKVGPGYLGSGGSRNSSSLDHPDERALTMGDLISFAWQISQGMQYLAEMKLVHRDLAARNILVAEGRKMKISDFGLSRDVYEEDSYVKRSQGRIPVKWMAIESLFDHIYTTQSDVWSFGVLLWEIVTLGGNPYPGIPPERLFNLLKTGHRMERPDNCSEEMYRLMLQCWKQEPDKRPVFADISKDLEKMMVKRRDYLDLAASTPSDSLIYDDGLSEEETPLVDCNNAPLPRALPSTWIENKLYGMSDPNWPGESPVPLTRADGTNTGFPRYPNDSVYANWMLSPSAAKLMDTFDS

[6] = tested on: HeLa cervical adenocarcinoma; experiment: Cell Proliferation Inhibition Assay (14C-thymidine incorporation), HeLa; format: cell-based; settings: Homo sapiens, HeLa, HeLa cells;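 also: test compound in DMSO added to cells seeded in scintillating 96-well plates, DMSO-only wells as control, uptake of methyl 14C-thymidine into new DNA counted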
[7] = tested on: A375 malignant melanoma; experiment: Cell Proliferation Inhibition Assay (14C-thymidine incorporation), A375; format: cell-based; settings: Homo sapiens, A-375, A375 cells;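 also: proliferation measured by radiolabelled thymidine uptake into new DNA, counted in scintillating 96-well plates, compound-treated wells compared with DMSO-only control wells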
[8] = tested on: HCT-116 colon carcinoma; experiment: Cell Proliferation Inhibition Assay (14C-thymidine incorporation), HCT-116; format: cell-based; settings: Homo sapiens, HCT-116, HCT-116 cells;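 also: proliferation measured as methyl 14C-thymidine uptake into new DNA, counted in 96-well scintillating microplates, compared with DMSO-only control wells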

T1 sequence (P06493 whole entry): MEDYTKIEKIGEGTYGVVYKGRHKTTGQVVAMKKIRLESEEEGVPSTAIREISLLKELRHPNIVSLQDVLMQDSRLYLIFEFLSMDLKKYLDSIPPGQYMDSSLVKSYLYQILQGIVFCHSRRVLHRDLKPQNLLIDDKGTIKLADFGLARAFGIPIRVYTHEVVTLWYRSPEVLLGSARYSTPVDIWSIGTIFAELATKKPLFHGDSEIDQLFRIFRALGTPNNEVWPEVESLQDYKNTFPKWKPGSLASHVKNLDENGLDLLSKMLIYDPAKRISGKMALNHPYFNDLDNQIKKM
T1 sequence (P14635 whole entry partner): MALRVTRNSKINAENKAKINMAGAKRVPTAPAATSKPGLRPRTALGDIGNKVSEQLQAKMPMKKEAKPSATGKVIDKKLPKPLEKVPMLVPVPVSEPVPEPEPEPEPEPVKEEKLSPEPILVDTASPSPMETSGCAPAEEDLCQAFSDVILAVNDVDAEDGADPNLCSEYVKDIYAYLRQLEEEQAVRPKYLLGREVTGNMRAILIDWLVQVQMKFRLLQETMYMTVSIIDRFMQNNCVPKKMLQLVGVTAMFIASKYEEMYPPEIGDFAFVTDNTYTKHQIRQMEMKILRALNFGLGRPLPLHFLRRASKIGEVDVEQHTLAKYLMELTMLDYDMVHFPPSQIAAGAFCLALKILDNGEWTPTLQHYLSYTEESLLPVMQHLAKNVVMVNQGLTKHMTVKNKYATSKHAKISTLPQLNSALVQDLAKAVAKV

IC50 [1] [µM]	IC50 [2] [µM]	IC50 [3] [µM]	IC50 [4] [µM]	IC50 [5] [µM]	IC50 [6] [µM]	IC50 [7] [µM]	IC50 [8] [µM]	Structure (SMILES)
0.00614	0.12	1.92	0.281	0.104	0.861	0.885	0.431	CN(C)Cc1cncc(-c2cnc3[nH]nc(-c4nc5cc(N6CCN(C)CC6)ccc5[nH]4)c3c2)c1 [Cpd 88, dimethyl-(5-{3-[5-(4-methyl-piperazin-1-yl)-1H-benzoimidazol-2-yl]-1H-pyrazolo[3,4-b]pyridin-5-yl}-pyridin-3-ylmethyl)-amine]
–	0.0475	31.8	0.225	0.193	0.617	0.544	0.423	CN1CCN(c2ccc3[nH]c(-c4n[nH]c5ncc(-c6cccnc6)cc45)nc3c2)CC1 [Cpd 89, 3-[5-(4-methyl-piperazin-1-yl)-1H-benzoimidazol-2-yl]-5-pyridin-3-yl-1H-pyrazolo[3,4-b]pyridine]
0.104	0.037	> 10	1.52	> 1	0.709	0.328	0.391	COCc1cccc2[nH]c(-c3n[nH]c4ncc(-c5cncc(CNC(C)(C)C)c5)cc34)nc12 [Cpd 53, tert-butyl-{5-[3-(4-methoxymethyl-1H-benzoimidazol-2-yl)-1H-pyrazolo[3,4-b]pyridin-5-yl]-pyridin-3-ylmethyl}-amine]
0.0317	1.04	> 10	> 1	> 1	0.163	0.0752	0.0787	O=C(NC1CCCC1)c1cccc2[nH]c(-c3n[nH]c4ncc(-c5cncc6ccccc56)cc34)nc12 [Cpd 27, 2-(5-isoquinolin-4-yl-1H-pyrazolo[3,4-b]pyridin-3-yl)-1H-benzoimidazole-4-carboxylic acid cyclopentylamide]
0.0017	> 0.01	> 10	> 1	> 0.01	0.12	0.526	0.685	CNCc1cncc(-c2cnc3[nH]nc(-c4nc5ccc(C#N)cc5[nH]4)c3c2)c1 [Cpd 105, 2-[5-(5-methylaminomethyl-pyridin-3-yl)-1H-pyrazolo[3,4-b]pyridin-3-yl]-3H-benzoimidazole-5-carbonitrile]
0.0116	0.232	> 100	~1	~1	0.205	0.0697	0.255	O=C(NC1CCC(O)CC1)c1cccc2[nH]c(-c3n[nH]c4ncc(-c5cncc6ccccc56)cc34)nc12 (stereo not shown) [Cpd 29, 2-(5-isoquinolin-4-yl-1H-pyrazolo[3,4-b]pyridin-3-yl)-1H-benzoimidazole-4-carboxylic acid (4-hydroxy-cyclohexyl)-amide]
> 100	~100	> 100	~100	> 100	1.94	0.0387	0.0554	CCOC(=O)c1cncc(-c2cnc3[nH]nc(-c4nc5c(COC)cccc5[nH]4)c3c2)c1 [Cpd 70, 5-[3-(4-methoxymethyl-1H-benzoimidazol-2-yl)-1H-pyrazolo[3,4-b]pyridin-5-yl]-nicotinic acid ethyl ester]
~10	~100	> 100	~100	> 100	10.5	7.38	–	COC(=O)c1cccc2[nH]c(-c3n[nH]c4ncc(-c5cncc6ccccc56)cc34)nc12 [Cpd 108, 2-(5-isoquinolin-4-yl-1H-pyrazolo[3,4-b]pyridin-3-yl)-1H-benzoimidazole-4-carboxylic acid methyl ester]

The next lines start with the compound.

Structure (SMILES)	IC50 [1] [µM]	IC50 [2] [µM]	IC50 [3] [µM]	IC50 [4] [µM]	IC50 [5] [µM]	IC50 [6] [µM]	IC50 [7] [µM]	IC50 [8] [µM]
COCc1cccc2[nH]c(-c3n[nH]c4ncc(-c5cncc(CN6CCOCC6)c5C)cc34)nc12 [Cpd 60, 3-(4-methoxymethyl-1H-benzoimidazol-2-yl)-5-(4-methyl-5-morpholin-4-ylmethyl-pyridin-3-yl)-1H-pyrazolo[3,4-b]pyridine]	0.471	3.05	~100	~1	> 10	1.6	0.0111	0.0395
COCc1cccc2[nH]c(-c3n[nH]c4ncc(-c5cnccc5C)cc34)nc12 [Cpd 57, 3-(4-methoxymethyl-1H-benzoimidazol-2-yl)-5-(4-methyl-pyridin-3-yl)-1H-pyrazolo[3,4-b]pyridine]	0.0663	> 1	> 100	> 1	> 10	0.685	0.119	0.0687
COCc1cccc2[nH]c(-c3n[nH]c4ncc(-c5cncc6ccccc56)cc34)nc12 [Cpd 4, 4-[3-(4-methoxymethyl-1H-benzoimidazol-2-yl)-1H-pyrazolo[3,4-b]pyridin-5-yl]-isoquinoline]	0.00561	0.461	0.0851	0.324	> 10	0.0148	0.0101	0.0101
COCc1cccc2[nH]c(-c3n[nH]c4ncc(-c5c[nH]c6ccccc56)cc34)nc12 [Cpd 39, 5-(1H-indol-3-yl)-3-(4-methoxymethyl-1H-benzoimidazol-2-yl)-1H-pyrazolo[3,4-b]pyridine]	1.21	0.266	> 100	> 1	> 100	1.68	0.0358	0.026
O=C(c1cccc2[nH]c(-c3n[nH]c4ncc(-c5cncc6ccccc56)cc34)nc12)N1CCCC1 [Cpd 21, [2-(5-isoquinolin-4-yl-1H-pyrazolo[3,4-b]pyridin-3-yl)-1H-benzoimidazole-4-yl]-pyrrolidin-1-yl-methanone]	0.162	2.79	> 10	4.83	> 10	0.804	0.472	0.899
OCc1cccc2[nH]c(-c3n[nH]c4ncc(-c5cncc6ccccc56)cc34)nc12 [Cpd 3, [2-(5-isoquinolin-4-yl-1H-pyrazolo[3,4-b]pyridin-3-yl)-1H-benzoimidazol-4-yl]-methanol]	0.0413	> 100	0.245	> 10	> 100	1.76	–	0.892
